How the values were obtained:
[1] = target: T1, Adenosine receptor A1 (Rattus norvegicus, UniProt P25099); experiment: Binding affinity towards the adenosine A1 receptor in cerebral cortices of Sprague-Dawley male rats using [3H]CHA as radioligand.
T1 sequence (P25099 whole entry): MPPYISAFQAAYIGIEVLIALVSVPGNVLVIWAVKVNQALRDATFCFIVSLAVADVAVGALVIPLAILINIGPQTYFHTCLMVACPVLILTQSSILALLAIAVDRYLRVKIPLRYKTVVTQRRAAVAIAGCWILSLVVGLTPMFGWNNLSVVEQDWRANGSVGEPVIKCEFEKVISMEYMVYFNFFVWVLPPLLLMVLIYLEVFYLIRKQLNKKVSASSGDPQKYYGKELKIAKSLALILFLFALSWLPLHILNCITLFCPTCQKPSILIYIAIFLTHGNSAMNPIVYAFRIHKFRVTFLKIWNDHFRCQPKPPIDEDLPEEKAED

[2] = target: Adenosine A2 receptor (Rattus norvegicus, UniProt P29276+P30543)
[3] = organism: Rattus norvegicus; experiment: Minimal effective dose in an rat anti-immobility effect using behavioral despair test; assay type: functional; details: read-out: MED
[4] = organism: Rattus norvegicus; experiment: Evaluated for Ca++ independent phosphodiesterase activity.; assay type: functional
[5] = target: Phosphodiesterase 1 (Rattus norvegicus, UniProt Q63421+Q9EPR9+Q01066); experiment: Evaluated for Ca++ dependent phosphodiesterase activity.; assay type: functional

Row | SMILES | IC50 [1] [nM] | IC50 [2] | IC50 [4] [nM] | IC50 [5] | minimal effective dose [3] [mg/kg]
1 | CC(C)Nc1nc2ccccc2n2cnnc12 | 4100 | 17000 nM | – | – | 3.2
2 | CC(C)Nc1nc2ccc(Cl)cc2n2c(-c3ccccc3)nnc12 | 3200 | > 100000 nM | > 10000 | > 10 µM | < 32
3 | Nc1nc2ccc(Cl)cc2n2c(-c3ccccc3)nnc12 | 270 | 21 nM | – | – | > 32
4 | CCN(CC)c1nc2ccc(Cl)cc2n2c(C(F)(F)F)nnc12 | > 100000 | > 100000 nM | – | – | ≤ 32
5 | CC(C)Nc1nc2ccccc2n2c(C(F)(F)F)nnc12 | 170 | 4100 nM | – | – | < 10
6 | CC(C)Nc1nc2ccc(F)cc2n2cnnc12 | 680 | 6900 nM | 4500 | > 100 µM | ≤ 3.2
7 | CCc1nnc2c(N(CC)CC)nc3ccccc3n12 | 7400 | – | 3700 | 0.1 µM | 3.2
8 | CCc1nnc2c(NC(C)C)nc3cc(Cl)c(Cl)cc3n12 | 110 | 3200 nM | – | – | ≤ 32
9 | CCc1nnc2c(N)nc3cc(Cl)c(Cl)cc3n12 | 110 | 23 nM | – | – | 3.2
10 | CCNc1nc2ccc(F)cc2n2c(C(F)(F)F)nnc12 | 230 | 14000 nM | – | – | 3.2
11 | CCNc1nc2cc(Cl)ccc2n2c(CC)nnc12 | – | – | 200 | > 10 µM | 3.2
12 | CCc1nnc2c(N)nc3cc(OC)ccc3n12 | 140 | 36 nM | – | – | > 32
13 | CCc1nnc2c(NC(C)C)nc3ccccc3n12 | 660 | 6400 nM | 300 | 3 µM | 10
14 | CCN(CC)c1nc2ccccc2n2cnnc12 | 27000 | 42000 nM | 3000 | 1.2 µM | 10
15 | CC(C)Nc1nc2ccc(F)cc2n2c(O)nnc12 | 730 | 3500 nM | – | – | > 32
16 | CCNc1nc2ccc(F)cc2n2cnnc12 | 3200 | 17000 nM | – | – | 3.2

Row | SMILES | IC50 [1] [nM] | IC50 [2] | IC50 [4] [nM] | IC50 [5] | minimal effective dose [3] [mg/kg]
17 | CC(C)Nc1nc2ccc(Cl)cc2n2cnnc12 | 370 | 3300 nM | – | – | 3.2
18 | Clc1ccc2nc(N3CCNCC3)c3nnc(-c4ccccc4)n3c2c1 | – | – | 10000 | >> 10 uM | > 32
19 | CCc1nnc2c(N)nc3cc(F)ccc3n12 | 580 | 170 nM | 40000 | >> 10 uM | 3.2
20 | CCc1nnc2c(NC(C)C)nc3ccc(Cl)cc3n12 | 60 | 1700 nM | 500 | 2 µM | ≤ 3.2
21 | CC(C)Nc1nc2cc(F)ccc2n2cnnc12 | 4500 | 13000 nM | 6000 | > 100 µM | > 32
22 | CCc1nnc2c(NC3CCCC3)nc3ccc(Cl)cc3n12 | 20 | 890 nM | – | – | > 32
23 | Nc1nc2ccccc2n2cnnc12 | 4600 | 400 nM | – | – | 3.2
24 | CCc1nnc2c(NC(C)C)nc3cc(F)c(F)cc3n12 | 280 | 6400 nM | – | – | ≤ 32
25 | CCc1nnc2c(N[C@@H](C)Cc3ccccc3)nc3ccc(Cl)cc3n12 | 680 | > 100000 nM | – | – | > 32
26 | CCNc1nc2ccccc2n2cnnc12 | 29000 | 110000 nM | – | – | 3.2
27 | FC(F)(F)c1nnc2c(NC3CCCCC3)nc3ccc(Cl)cc3n12 | 28 | > 100000 nM | > 10000 | > 10 µM | > 32
28 | Nc1nc2ccc(F)cc2n2c(O)nnc12 | 840 | 700 nM | – | – | 10
29 | Nc1nc2ccc(Cl)cc2n2cnnc12 | 3400 | >= 1 uM | – | – | 10
30 | CCc1nnc2c(NC3CCCCC3)nc3ccc(Cl)cc3n12 | 44 | 4100 nM | – | – | > 32
31 | Nc1nc2cc(F)ccc2n2cnnc12 | 6100 | 560 nM | – | – | ≤ 32

Second part, led by results:

Row | IC50 [1] [nM] | IC50 [2] | IC50 [4] [nM] | IC50 [5] | SMILES | minimal effective dose [3] [mg/kg]
32 | 440 | 48000 nM | – | – | CCc1nnc2c(NC(C)C)nc3cc(F)ccc3n12 | ≥ 32
33 | 32 | 60000 nM | 6000 | > 10 µM | Fc1ccc2nc(NC3CCCCC3)c3nnc(C(F)(F)F)n3c2c1 | > 32
34 | – | – | > 10000 | >> 10 uM | CCCN(CCC)c1nc2ccc(F)cc2n2c(C(F)(F)F)nnc12 | > 32
35 | 290 | 100 nM | – | – | Nc1nc2ccc(F)cc2n2c(C(F)(F)F)nnc12 | 1
36 | 24 | 2300 nM | 1000 | 1 µM | CC(C)Nc1nc2ccc(Cl)cc2n2c(C(F)(F)F)nnc12 | ≤ 3.2
37 | 24 | 3100 nM | – | – | CC(C)Nc1nc2ccc(Cl)cc2n2c(C(F)(F)C(F)(F)F)nnc12 | 32
38 | 11000 | 26000 nM | – | – | CCNc1nc2cc(F)ccc2n2cnnc12 | 32
39 | 110 | 28 nM | – | – | CCc1nnc2c(N)nc3ccc(Cl)cc3n12 | ≤ 3.2
40 | 5.5 | 2100 nM | – | – | FC(F)(F)c1nnc2c(NC3CCCC3)nc3ccc(Cl)cc3n12 | > 32
41 | 180 | 3900 nM | – | – | CCc1nnc2c(NC(C)C)nc3ccc(F)cc3n12 | 3.2
42 | 2900 | 1000 nM | 4000 | > 10 µM | Nc1nc2ccc(F)cc2n2cnnc12 | ≤ 32
43 | > 10000 | – | 7000 | 3 µM | c1ccc2c(c1)nc(N1CCNCC1)c1nncn12 | > 32
44 | 380 | > 100000 nM | – | – | CCc1nnc2c(Nc3ccccc3)nc3ccc(Cl)cc3n12 | > 32
45 | 75 | 29 nM | – | – | CCc1nnc2c(N)nc3cc(Cl)ccc3n12 | ≤ 3.2
46 | 160 | 6500 nM | – | – | COc1nnc2c(NC(C)C)nc3ccc(F)cc3n12 | ≤ 32
47 | 710 | 4500 nM | – | – | CCNc1nc2ccc(OC)cc2n2c(CC)nnc12 | > 32
48 | – | – | 170000 | 70 µM | Cn1c(=O)c2c(ncn2C)n(C)c1=O [CAFFEINE] | 3.2

From ChEMBL document CHEMBL1124880 (J Med Chem, 1990)
